Like-named read-outs stand apart in the source and are kept apart here.
How the values were obtained:
[1] = tested on: GM1 production; test: cells; format: cell-based
[2] = target: glucosylceramide synthase (GCS) (Homo sapiens (Human), UniProt Q16739); test: Evaluation of inhibitory activities against GCS (enzyme reaction with A549 cell lysate, NBD C6-ceramide, HPLC fluorescence); format: biochemical; settings: GCS activity in A549 cell lysate, 37° C. for 90 minutes
Procedure: Ibiglustat, known as a GCS inhibitor, was used as a control.
After the cells attached to the culture dish were washed with phosphate buffered saline (PBS), the cells were scraped off with a cell scraper and then centrifuged (4000 rpm, 3 min, 4° C.) to collect the cells in a 50 ml tube. The cell pellets were suspended in a lysis buffer (50 mM HEPES, pH 7.3, containing 1× the protease/phosphatase inhibitor cocktail), lysed by sonication, and then the lysate was centrifuged (13000 rpm, 10 min, 4° C.). The obtained supernatant was used for the quantitative analysis of proteins. The amount of proteins was measured using the BCA protein assay kit, using bovine serum albumin as a standard.
Enzymatic reactions were initiated by sequentially adding the following reaction materials to a 96 deep-well plate. Thereafter, the enzymatic reactions were performed at 37° C. for 90 minutes.
The enzymatic reactions were stopped by adding 100 μl of chloroform/methanol (2:1, v/v). After vortexing for 15 seconds, each mixture was centrifuged (4000 rpm, 10 min, 18° C.). The lower layer (50 μl) was transferred to a new 96 deep-well plate and dried with a reduced concentrator.
Data analysis was performed by the following equations. % Area (Sample)=Area (GlcCer)/[Area (Cer)+Area (GlcCer)]×100 % GCS activity=[Area(Sample)−Area(ibiglustat)]/[Area(DMSO)−Area(ibiglustat)]×100

glucosylceramide synthase (GCS), sequence (Q16739 whole entry, looked up): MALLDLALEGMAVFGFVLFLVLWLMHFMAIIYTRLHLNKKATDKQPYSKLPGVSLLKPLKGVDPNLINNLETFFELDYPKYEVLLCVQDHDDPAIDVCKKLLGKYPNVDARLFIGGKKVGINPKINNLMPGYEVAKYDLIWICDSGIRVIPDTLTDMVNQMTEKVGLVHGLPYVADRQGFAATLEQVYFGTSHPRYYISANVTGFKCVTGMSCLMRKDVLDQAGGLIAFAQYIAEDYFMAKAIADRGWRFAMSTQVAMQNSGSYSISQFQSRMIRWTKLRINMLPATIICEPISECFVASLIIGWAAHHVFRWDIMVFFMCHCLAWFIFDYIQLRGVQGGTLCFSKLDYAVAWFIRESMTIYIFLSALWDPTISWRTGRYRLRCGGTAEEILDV

Structure (SMILES) | IC50 ([1]; Homo sapiens, Jurkat, 72 h) | IC50 [2] | IC50 ([1]; read-out: IC50)
CCc1ccc(-c2ccc3c(c2)CCCC3NC(=O)O[C@@H]2CN3CCC2CC3)cc1 (stereo partly drawn) [Example 31, (S)-quinuclidin-3-yl (6-(4-ethylphenyl)-1,2,3,4-tetrahydronaphthalen-1-yl)carbamate] | 2.92 nM | 6.58 nM | 
CCCc1ccc(-c2ccc3c(c2)CCCC3NC(=O)O[C@@H]2CN3CCC2CC3)cc1 (stereo partly drawn) [Example 32, (S)-quinuclidin-3-yl (6-(4-propylphenyl)-1,2,3,4-tetrahydronaphthalen-1-yl)carbamate] | 475 nM | 8.31 nM | 
CCCCc1ccc(-c2ccc3c(c2)CCCC3NC(=O)O[C@@H]2CN3CCC2CC3)cc1 (stereo partly drawn) [Example 33, (S)-quinuclidin-3-yl (6-(4-butylphenyl)-1,2,3,4-tetrahydronaphthalen-1-yl)carbamate] | 499 nM | 3.95 nM | 
CC(C)c1ccc(-c2ccc3c(c2)CCCC3NC(=O)O[C@@H]2CN3CCC2CC3)cc1 (stereo partly drawn) [Example 34, (S)-quinuclidin-3-yl (6-(4-isopropylphenyl)-1,2,3,4-tetrahydronaphthalen-1-yl)carbamate] | 298 nM | 6.1 nM | 
CC(C)Cc1ccc(-c2ccc3c(c2)CCCC3NC(=O)O[C@@H]2CN3CCC2CC3)cc1 (stereo partly drawn) [Example 35, (S)-quinuclidin-3-yl (6-(4-isobutylphenyl)-1,2,3,4-tetrahydronaphthalen-1-yl)carbamate] | 265 nM | 9.16 nM | 
CC(C)(C)c1ccc(-c2ccc3c(c2)CCCC3NC(=O)O[C@@H]2CN3CCC2CC3)cc1 (stereo partly drawn) [Example 36, (S)-quinuclidin-3-yl (6-(4-(tert-butyl)phenyl)-1,2,3,4-tetrahydronaphthalen-1-yl)carbamate] | 339 nM | 22.4 nM | 
O=C(NC1CCCc2cc(-c3ccc(C4CC4)cc3)ccc21)O[C@H]1CN2CCC1CC2 (stereo partly drawn) [Example 37, (S)-quinuclidin-3-yl (6-(4-cyclopropyl)-1,2,3,4-tetrahydronaphthalen-1-yl)carbamate] |  | 5.07 nM | 286 nM
CCc1cccc(-c2ccc3c(c2)CCCC3NC(=O)O[C@@H]2CN3CCC2CC3)c1 (stereo partly drawn) [Example 38, (S)-quinuclidin-3-yl (6-(3-ethylphenyl)-1,2,3,4-tetrahydronaphthalen-1-yl)carbamate] | 316 nM | 1.7 nM | 
CC(C)(C)c1cccc(-c2ccc3c(c2)CCCC3NC(=O)O[C@@H]2CN3CCC2CC3)c1 (stereo partly drawn) [Example 39, (S)-quinuclidin-3-yl (6-(3-(tert-butyl)phenyl)-1,2,3,4-tetrahydronaphthalen-1-yl)carbamate] | 849 nM | 2.88 nM | 
CC(C)c1cccc(-c2ccc3c(c2)CCCC3NC(=O)O[C@@H]2CN3CCC2CC3)c1 (stereo partly drawn) [Example 40, (S)-quinuclidin-3-yl (6-(3-isopropylphenyl)-1,2,3,4-tetrahydronaphthalen-1-yl)carbamate] | 218 nM | 1.77 nM | 
CCc1ccccc1-c1ccc2c(c1)CCCC2NC(=O)O[C@@H]1CN2CCC1CC2 (stereo partly drawn) [Example 41, (S)-quinuclidin-3-yl (6-(2-ethylphenyl)-1,2,3,4-tetrahydronaphthalen-1-yl)carbamate] | 292 nM | 9.08 nM | 
O=C(NC1CCCc2cc(-c3ccc4c(c3)OC(F)(F)O4)ccc21)O[C@@H]1CN2CCC1CC2 (stereo partly drawn) [Example 42, (S)-quinuclidin-3-yl (6-(2,2-difluorobenzo[d][1,3]dioxol-5-yl)-1,2,3,4-tetrahydronaphthalen-1-yl)carbamate] | 210 nM | 6.71 nM | 
O=C(NC1CCCc2cc(-c3ccc4c(c3)OCCO4)ccc21)O[C@@H]1CN2CCC1CC2 (stereo partly drawn) [Example 43, (S)-quinuclidin-3-yl (6-(2,3-dihydrobenzo[b][1,4]dioxin-6-yl)-1,2,3,4-tetrahydronaphthalen-1-yl)carbamate] | 616 nM | 6.06 nM | 
O=C(NC1CCCc2cc(-c3ccc4c(c3)OCC4)ccc21)O[C@@H]1CN2CCC1CC2 (stereo partly drawn) [Example 44, (S)-quinuclidin-3-yl (6-(2,3-dihydrobenzofuran-6-yl)-1,2,3,4-tetrahydronaphthalen-1-yl)carbamate] | 480 nM | 7.59 nM | 
